# Results taken from PubChem BioAssay AID1963847 (Molecular Pharmacology Branch, DTP, NCI, 2024).
# System: 415267-285-R-J2-PDC complex spheroid viability
# Assay: Anticancer human tumor 415267-285-R-J2-PDC patient-derived breast carcinoma cell line growth inhibition [POLQ]
# Conditions: for IC50: curve of first compound; for viability, T/C: stronger effect = lower value
# Outline: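 Complex spheroid viability model combining PDC tumour cells with endothelial (HUVEC) and MSC stromal cells. Novobiocin, ART-558 or RP6685 were tested singly and in combination with standard and investigational anticancer drugs. Each was titrated in half-log steps from near clinical Cmax, or from 10 microM where Cmax was unknown.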
# [1] = second compound 0.0316 µM, first compound 0.0316 µM
# [2] = second compound 0.0316 µM, first compound 0.1 µM
# [3] = second compound 0.0316 µM, first compound 0.316 µM
# [4] = second compound 0.0316 µM, first compound 1 µM
# [5] = second compound 0.0316 µM, first compound 3.16 µM
# [6] = second compound 0.0316 µM, first compound 10 µM
# [7] = second compound 0.1 µM, first compound 0.0316 µM
# [8] = second compound 0.1 µM, first compound 0.1 µM
# [9] = second compound 0.1 µM, first compound 0.316 µM
# [10] = second compound 0.1 µM, first compound 1 µM
# [11] = second compound 0.1 µM, first compound 3.16 µM
# [12] = second compound 0.1 µM, first compound 10 µM
# [13] = second compound 0.316 µM, first compound 0.0316 µM
# [14] = second compound 0.316 µM, first compound 0.1 µM
# [15] = second compound 0.316 µM, first compound 0.316 µM
# [16] = second compound 0.316 µM, first compound 1 µM
# [17] = second compound 0.316 µM, first compound 3.16 µM
# [18] = second compound 0.316 µM, first compound 10 µM
# [19] = second compound 1 µM, first compound 0.0316 µM
# [20] = second compound 1 µM, first compound 0.1 µM
# [21] = second compound 1 µM, first compound 0.316 µM
# [22] = second compound 1 µM, first compound 1 µM
# [23] = second compound 1 µM, first compound 3.16 µM
# [24] = second compound 1 µM, first compound 10 µM
# [25] = second compound 3.16 µM, first compound 0.0316 µM
# [26] = second compound 3.16 µM, first compound 0.1 µM
# [27] = second compound 3.16 µM, first compound 0.316 µM
# [28] = second compound 3.16 µM, first compound 1 µM
# [29] = second compound 3.16 µM, first compound 3.16 µM
# [30] = second compound 3.16 µM, first compound 10 µM
# [31] = second compound 10 µM, first compound 0.0316 µM
# [32] = second compound 10 µM, first compound 0.1 µM
# [33] = second compound 10 µM, first compound 0.316 µM
# [34] = second compound 10 µM, first compound 1 µM
# [35] = second compound 10 µM, first compound 3.16 µM
# [36] = second compound 10 µM, first compound 10 µM
# 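Note: spheroids exposed to compounds for one week before readout.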
# 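Throughout, for viability, T/C: luminescence used as stand-in measure of viable cells; 100% = DMSO vehicle control viability.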
smiles,measurement,setting,value
COc1cc2cc(C(=O)CCC(=O)O)sc2cc1OC + Nc1ccc(C#CCN(C(=O)Cc2ncc(C(F)(F)F)cc2C(F)(F)F)c2ccc(F)cc2)nn1,IC50,second compound 0.0316 µM,> 10 µM
same,IC50,second compound 0.1 µM,> 10 µM
same,IC50,second compound 0.316 µM,> 10 µM
same,IC50,second compound 1 µM,> 10 µM
same,IC50,second compound 3.16 µM,> 10 µM
same,IC50,second compound 10 µM,> 10 µM
same,"viability, T/C",[1],108%
same,"viability, T/C",[2],95.4%
same,"viability, T/C",[3],93.7%
same,"viability, T/C",[4],97.3%
same,"viability, T/C",[5],93.8%
same,"viability, T/C",[6],97.3%
same,"viability, T/C",[7],111%
same,"viability, T/C",[8],105%
same,"viability, T/C",[9],94.2%
same,"viability, T/C",[10],98.2%
same,"viability, T/C",[11],92.5%
same,"viability, T/C",[12],95.1%
same,"viability, T/C",[13],111%
same,"viability, T/C",[14],103%
same,"viability, T/C",[15],91.8%
same,"viability, T/C",[16],89.9%
same,"viability, T/C",[17],98.9%
same,"viability, T/C",[18],85.9%
same,"viability, T/C",[19],103%
same,"viability, T/C",[20],88.9%
same,"viability, T/C",[21],96.6%
same,"viability, T/C",[22],102%
same,"viability, T/C",[23],96.5%
same,"viability, T/C",[24],91.2%
same,"viability, T/C",[25],105%
same,"viability, T/C",[26],92%
same,"viability, T/C",[27],101%
same,"viability, T/C",[28],98.9%
same,"viability, T/C",[29],94.3%
same,"viability, T/C",[30],109%
same,"viability, T/C",[31],101%
same,"viability, T/C",[32],97.4%
same,"viability, T/C",[33],100%
same,"viability, T/C",[34],106%
same,"viability, T/C",[35],97.9%
same,"viability, T/C",[36],96.5%
O=C(Nc1ccc(O)c(NS(=O)(=O)c2ccc(F)cc2)c1)c1ccc(-c2ccccc2)cc1 + Nc1ccc(C#CCN(C(=O)Cc2ncc(C(F)(F)F)cc2C(F)(F)F)c2ccc(F)cc2)nn1,IC50,second compound 0.0316 µM,> 10 µM
same,IC50,second compound 0.1 µM,> 10 µM
same,IC50,second compound 0.316 µM,> 10 µM
same,IC50,second compound 1 µM,> 10 µM
same,IC50,second compound 3.16 µM,> 10 µM
same,IC50,second compound 10 µM,> 10 µM
same,"viability, T/C",[1],100%
same,"viability, T/C",[2],97.3%
same,"viability, T/C",[3],84.3%
same,"viability, T/C",[4],107%
same,"viability, T/C",[5],92.7%
same,"viability, T/C",[6],78.2%
same,"viability, T/C",[7],104%
same,"viability, T/C",[8],99.1%
same,"viability, T/C",[9],106%
same,"viability, T/C",[10],86.1%
same,"viability, T/C",[11],97.2%
same,"viability, T/C",[12],61.6%
same,"viability, T/C",[13],105%
same,"viability, T/C",[14],102%
same,"viability, T/C",[15],107%
same,"viability, T/C",[16],94.9%
same,"viability, T/C",[17],97.4%
same,"viability, T/C",[18],71.5%
same,"viability, T/C",[19],102%
same,"viability, T/C",[20],90.8%
same,"viability, T/C",[21],89.6%
same,"viability, T/C",[22],95.3%
same,"viability, T/C",[23],99.8%
same,"viability, T/C",[24],66.2%
same,"viability, T/C",[25],102%
same,"viability, T/C",[26],103%
same,"viability, T/C",[27],106%
same,"viability, T/C",[28],97.8%
same,"viability, T/C",[29],91.7%
same,"viability, T/C",[30],75.7%
same,"viability, T/C",[31],102%
same,"viability, T/C",[32],99.9%
same,"viability, T/C",[33],111%
same,"viability, T/C",[34],89.5%
same,"viability, T/C",[35],99.5%
same,"viability, T/C",[36],59.5%
